Measurements taken from patent US20220144812A1, “QUINOLINE DERIVATIVES AND THEIR USE FOR THE TREATMENT OF CANCER” (Epizyme, Inc., priority 2019, published 2022).
Where two headings read alike, the source gives them in different places.

How the values were obtained:
CREBBP (1084-1701) = molecular target: T1, CREBBP (1084-1701) (Homo sapiens, UniProt Q92793); test: Biochemical assay for CREBBP (1084-1701), SAMDI; conditions: SAMDI, read-out: CREBBP Biochemistry IC50
T1 construct: measured in the following biochemical assay using CREBBP (1084-1701); purchased
Excerpt: The following example describes materials and methods relating to a biochemical assay for CREBBP (1084-1701). IC50 values (micromolar (μM)) are summarized in Table 1, Table 2, and Table 3 under the column labeled: “CREBBP Biochemistry IC50 (micromolar).”
MATERIALS: Reagents 1M Tris pH 8.0, Tween 20 10%, DTT, bovine serum gelatin (BSG) 2%, Peptide #233 (biotin-H3 11-25, K14R, K23R), Acetyl-CoA, CREBBP (1084-1701), formic acid (100%), and sodium bicarbonate were commercially available.
METHODS: The effect of compounds was measured in the following biochemical assay using CREBBP (1084-1701). Enzyme mix 30 μL per well was added using a Multi-drop to wells of prepared Compound Stock plate. The enzyme was incubated in the Compound Stock plate for 30 minutes at room temperature. Substrate mix, 20 μL per well, was added to Compound Stock plate using a Multi-drop. The plate was covered and incubate 30 minutes at room temperature. The reaction was stopped with addition of 5 μL per well of 5% formic acid using a Multi-drop. The plate was Incubated for 30 minutes at room temperature. The reaction mixture was neutralized with addition of 5 μL per well of 10% sodium bicarbonate using a Multi-drop. The plate was Incubated for 35 minutes at room temperature. The reaction mixture was Transferred 2.5 μL per well to a SAMDI biochip. The plate was Incubated for 60 minutes at room temperature. The samples were washed, dried, and matrix applied to SAMDI biochip. The SAMDI biochip was then read on the mass spectrometer.

[1] = system: H3K18Ac in HB-CLS-2 cells; test: H3K18AC in-cell western (ICW) assay; type: cell-based; conditions: H3K18Ac in-cell western, read-out: CREBBP ICW IC50
Excerpt: The following example describes methods and materials relating to an H3K18AC in-cell western assay. IC50 values (micromolar (μM)) are summarized in Table 1, Table 2, and Table 3 under the column labeled: “CREBBP ICW IC50 (micromolar).”
MATERIALS: HB-CLS-2 cell line, DMEM: Ham's F12 medium (1:1 mixture), penicillin-streptomycin, heat inactivated fetal bovine serum, D-PBS, Odyssey blocking buffer, 800CW goat anti-rabbit IgG (H+L) antibody, Licor Odyssey CLx Infrared Scanner, H3K18Ac rabbit monoclonal antibody. DRAQS fluorescent probe solution (5 mM), and 100% methanol were commercially available. HB-CLS-2 adherent cells were maintained in complete growth medium (DMEM: Ham's F12 supplemented with 10% v/v heat inactivated fetal bovine serum) and cultured at 37° C. under 5% CO2.
METHOD: Cell Treatment, ICW for detection of H3K18Ac and DNA content. HB-CLS-2 cells were seeded in assay medium (DMEM: Ham's F12 supplemented with 10% v/v heat inactivated fetal bovine serum and 1% Penicillin/Streptomycin) at a concentration of 80,000 cells per mL in a Poly-D-Lysine coated 384-well culture plates at 50 μL per well. Plates were incubated at room temperature for 30 minutes and then incubated at 37° C., 5% CO2 for additional 16-24 hours. Compounds and DMSO normalization were then added directly to the plates using a D300 Digital Dispenser and returned to the incubator at 37° C., 5% CO2 for 2 hrs. After the incubation, the contents of the plates were discarded into the appropriate waste stream and blotted on laboratory tissue to remove residual liquid. 90 μL per well of 100% ice cold methanol was added to the plates and incubated at room temperature for 15 minutes. Then methanol was then discarded into the appropriate waste stream and the plates again blotted on laboratory tissue to remove residual liquid. Plates were transferred to a Biotek 405 plate washer and washed 3 times with 100 μL per well of wash buffer (1X PBS containing 0.1% Triton X-100 (v/v)). Next, 50 μL per well of Odyssey blocking buffer with 0.1% Tween 20 (v/v) was added to each plate and incubated for 1 hour at room temperature. Blocking buffer was removed and 20 μL of primary antibody were added (α-H3K18Ac diluted 1:800 in Odyssey buffer with 0.1% Tween 20 (v/v)) and plates were incubated overnight (16 hours) at 4° C. Plates were washed 5 times with 100 μL per well of wash buffer. Next 20 μL per well of secondary antibody was added (1:400 800CW goat anti-rabbit IgG (H+L) antibody, 1:2000 DRAQ5 in Odyssey buffer with 0.1% Tween 20 (v/v)) and incubated for 1 hour at room temperature. The plates were washed 3 times with 100 μL per well wash buffer then 3 times with 100 μL per well of water. Plates were allowed to dry at room temperature then imaged on the Licor Odyssey CLx machine which measured integrated intensity at 700 nm and 800 nm wavelengths. Both 700 and 800 channels were scanned.

T1 sequence (Q92793 1084-1701): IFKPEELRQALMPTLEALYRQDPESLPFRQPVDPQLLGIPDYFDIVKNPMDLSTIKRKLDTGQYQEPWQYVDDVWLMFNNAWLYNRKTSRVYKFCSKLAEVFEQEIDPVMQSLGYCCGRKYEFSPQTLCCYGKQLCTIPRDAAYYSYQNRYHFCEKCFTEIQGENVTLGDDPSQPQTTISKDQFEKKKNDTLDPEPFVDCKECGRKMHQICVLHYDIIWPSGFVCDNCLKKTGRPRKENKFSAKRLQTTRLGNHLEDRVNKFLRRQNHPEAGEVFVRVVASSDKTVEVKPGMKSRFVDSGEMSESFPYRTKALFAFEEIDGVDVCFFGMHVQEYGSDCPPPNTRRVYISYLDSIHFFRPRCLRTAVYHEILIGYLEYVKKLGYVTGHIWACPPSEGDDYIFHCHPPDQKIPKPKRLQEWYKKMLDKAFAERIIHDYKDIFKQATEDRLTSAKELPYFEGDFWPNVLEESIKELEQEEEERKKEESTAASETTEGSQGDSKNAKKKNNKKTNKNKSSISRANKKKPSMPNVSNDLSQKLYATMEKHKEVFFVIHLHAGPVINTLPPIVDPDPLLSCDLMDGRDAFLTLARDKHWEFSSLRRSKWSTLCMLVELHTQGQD

CCn1ncc(CN(C)C(=O)c2cc(-c3ccccc3Cl)nc3ccc(Cl)cc23)c1C [Compound 95]
IC50 (CREBBP (1084-1701)): 0.25 µM | IC50 [1]: 1.8 µM

CCn1ncc(CN(C)C(=O)c2cc(-c3ccccc3Cl)nc3cc(Cl)c(Cl)cc23)c1C [Compound 97]
IC50 (CREBBP (1084-1701)): 0.47 µM | IC50 [1]: 1.9 µM

CCn1ncc(CN(C)C(=O)c2cc(-c3ccccc3OC)nc3ccc(Cl)cc23)c1C [Compound 98]
IC50 (CREBBP (1084-1701)): 0.4 µM | IC50 [1]: 2 µM

CCn1ncc(CN(C)C(=O)c2cc(-c3cccc(Cl)c3)nc3ccc(C)cc23)c1C [Compound 126]
IC50 (CREBBP (1084-1701)): 0.98 µM | IC50 [1]: 4.3 µM

CCn1ncc(CN(C)C(=O)c2cc(-c3ccccc3)nc3ccc(Cl)cc23)c1C [Compound 140]
IC50 (CREBBP (1084-1701)): 3.9 µM | IC50 [1]: 6.1 µM

CCn1ncc(CN(C)C(=O)c2cc(-c3ccccc3)nc3ccc(C)cc23)c1C [Compound 150]
IC50 (CREBBP (1084-1701)): 6.6 µM | IC50 [1]: 8.2 µM

CCn1ncc(CN(C)C(=O)c2nc(-c3cnn(C4CCNC4)c3)nc3ccc(Cl)cc23)c1C (stereo not drawn) [Compound 206]
IC50 (CREBBP (1084-1701)): 192 µM | IC50 ([1]; HB-CLS-2 cells): 20 µM

CCn1ncc(CN(C)C(=O)c2nc(-c3cnn(CCCO)c3)nc3ccc(Cl)cc23)c1C [Compound 212]
IC50 (CREBBP (1084-1701)): 96 µM | IC50 ([1]; HB-CLS-2 cells): 20 µM

CCn1ncc(CN(C)C(=O)c2nc(-c3cnn(CCNC)c3)nc3ccc(Cl)cc23)c1C [Compound 213]
IC50 (CREBBP (1084-1701)): 135 µM | IC50 ([1]; HB-CLS-2 cells): 20 µM

CCn1ncc(CN(C)C(=O)c2nc(Cc3ccccc3)nc3ccc(Cl)cc23)c1C [Compound 225]
IC50 (CREBBP (1084-1701)): 96 µM | IC50 ([1]; HB-CLS-2 cells): 20 µM

CCc1onc(CN(C)C(=O)c2nc(-c3ccccc3Cl)nc3ccc(Cl)cc23)c1C [Compound 231]
IC50 (CREBBP (1084-1701)): 76 µM | IC50 ([1]; HB-CLS-2 cells): 20 µM

CCn1ncc(CN(C)C(=O)c2nc(-c3ccc(OCCCN(C)C(=O)OC(C)(C)C)cc3)nc3ccc(Cl)cc23)c1C [Compound 242]
IC50 (CREBBP (1084-1701)): 57 µM | IC50 ([1]; HB-CLS-2 cells): 20 µM

CCn1ncc(CN(C)C(=O)c2cc(-c3cn(CCCNC(=O)OC(C)(C)C)cn3)nc3ccc(Cl)cc23)c1C [Compound 243]
IC50 (CREBBP (1084-1701)): 99 µM | IC50 ([1]; HB-CLS-2 cells): 20 µM

CCn1ncc(CN(C)C(=O)c2nc(-c3cnn(CCCNC)c3)nc3ccc(Cl)cc23)c1C [Compound 250]
IC50 (CREBBP (1084-1701)): 121 µM | IC50 ([1]; HB-CLS-2 cells): 20 µM

CCn1ncc(CN(C)C(=O)c2nc(-c3cccc(Cl)c3Cl)nc3ccc(Cl)cc23)c1C [Compound 259]
IC50 (CREBBP (1084-1701)): 0.0026 µM | IC50 ([1]; HB-CLS-2 cells): 0.18 µM

CCn1ncc(CN(C)C(=O)c2nc(-c3cccc(Cl)n3)nc3ccc(Cl)cc23)c1C [Compound 260]
IC50 (CREBBP (1084-1701)): 1.7 µM | IC50 ([1]; HB-CLS-2 cells): 3.6 µM

CCn1ncc(CN(C)C(=O)c2nc(-c3ccccc3Cl)nc3ccc(COC)cc23)c1C [Compound 276]
IC50 (CREBBP (1084-1701)): 0.62 µM | IC50 ([1]; HB-CLS-2 cells): 1.5 µM

Cc1c(CN(C)C(=O)c2nc(-c3ccccc3Cl)nc3ccc(Cl)cc23)cnn1C(C)C [Compound 279]
IC50 (CREBBP (1084-1701)): 0.082 µM | IC50 ([1]; HB-CLS-2 cells): 0.76 µM

CCn1ncc(CN(C)C(=O)c2nc(-c3ccccc3OC)nc3ccc(Cl)cc23)c1C [Compound 281]
IC50 (CREBBP (1084-1701)): 0.83 µM | IC50 ([1]; HB-CLS-2 cells): 1.3 µM

CCn1ncc(CN(C)C(=O)c2nc(-c3ccc(C)cc3)nc3ccc(Cl)cc23)c1C [Compound 282]
IC50 (CREBBP (1084-1701)): 5.5 µM | IC50 ([1]; HB-CLS-2 cells): 11 µM

CCn1ncc(CN(C)C(=O)c2nc(-c3cccc(Br)c3)nc3ccc(Cl)cc23)c1C [Compound 283]
IC50 (CREBBP (1084-1701)): 0.00089 µM | IC50 ([1]; HB-CLS-2 cells): 0.67 µM

Cc1c(CN(C)C(=O)c2nc(-c3ccccc3Cl)nc3ccc(Cl)cc23)cnn1C1CC1 [Compound 285]
IC50 (CREBBP (1084-1701)): 4.2 µM | IC50 ([1]; HB-CLS-2 cells): 2.7 µM

CCn1ncc(CN(C)C(=O)c2nc(-c3ccccc3C#N)nc3ccc(Cl)cc23)c1C [Compound 294]
IC50 (CREBBP (1084-1701)): 0.22 µM | IC50 ([1]; HB-CLS-2 cells): 0.57 µM

CCn1ncc(CN(C)C(=O)c2nc(-c3cc(Cl)ccc3Cl)nc3ccc(Cl)cc23)c1C [Compound 297]
IC50 (CREBBP (1084-1701)): 1.8 µM | IC50 ([1]; HB-CLS-2 cells): 3.2 µM

Cc1c(CN(C)C(=O)c2nc(-c3cccc(Cl)c3)nc3ccc(Cl)cc23)cnn1C(C)C [Compound 299]
IC50 (CREBBP (1084-1701)): 0.028 µM | IC50 ([1]; HB-CLS-2 cells): 0.61 µM

CCn1ncc(CN(C)C(=O)c2nc(-c3cccc(C#N)c3)nc3ccc(Cl)cc23)c1C [Compound 301]
IC50 (CREBBP (1084-1701)): 2 µM | IC50 ([1]; HB-CLS-2 cells): 3.9 µM

CCN(Cc1cnn(CC)c1C)C(=O)c1cc(-c2ccccc2Cl)nc2ccc(Cl)cc12 [Compound 302]
IC50 (CREBBP (1084-1701)): 2.5 µM | IC50 ([1]; HB-CLS-2 cells): 8.9 µM

CCc1ccc2nc(-c3ccccc3Cl)nc(C(=O)N(C)Cc3cnn(CC)c3C)c2c1 [Compound 312]
IC50 (CREBBP (1084-1701)): 0.072 µM | IC50 ([1]; HB-CLS-2 cells): 0.58 µM

CCn1ncc(CN(C)C(=O)c2nc(-c3cscn3)nc3ccc(Cl)cc23)c1C [Compound 313]
IC50 (CREBBP (1084-1701)): 1.9 µM | IC50 ([1]; HB-CLS-2 cells): 1.9 µM

CCn1ncc(CN(C)C(=O)c2nc(-c3cccc(F)c3)nc3ccc(Cl)cc23)c1C [Compound 316]
IC50 (CREBBP (1084-1701)): 0.35 µM | IC50 ([1]; HB-CLS-2 cells): 1.7 µM

CCn1ncc(CN(C)C(=O)c2nc(-c3cccc(C)c3)nc3ccc(Cl)cc23)c1C [Compound 317]
IC50 (CREBBP (1084-1701)): 0.23 µM | IC50 ([1]; HB-CLS-2 cells): 1.5 µM

CCn1ncc(CN(C)C(=O)c2cc(-c3cccc(Cl)c3)nc3ccc(NC)cc23)c1C [Compound 330]
IC50 (CREBBP (1084-1701)): 9 µM | IC50 ([1]; HB-CLS-2 cells): 17 µM

CCn1ncc(CN(C)C(=O)c2cc(-c3ccccc3Cl)nc3c(F)cccc23)c1C [Compound 365]
IC50 (CREBBP (1084-1701)): 14 µM

CN(Cc1cnn2c1CCC2)C(=O)c1cc(-c2cccc(Cl)c2)nc2ccc(Cl)cc12 [Compound 367]
IC50 (CREBBP (1084-1701)): 72 µM

CCn1ncc(CN(C)C(=O)c2cc(-c3cccc(Cl)c3)nc3ccc(F)cc23)c1C [Compound 368]
IC50 (CREBBP (1084-1701)): 15 µM

CCn1ncc(CN(C)C(=O)c2nc(-c3ccccc3Cl)nc3ccc(C)cc23)c1C [Compound 370]
IC50 (CREBBP (1084-1701)): 0.67 µM

CCn1ncc(CN(C)C(=O)c2cc(-c3ncccn3)nc3ccc(Cl)cc23)c1C [Compound 371]
IC50 (CREBBP (1084-1701)): 25 µM

CCc1ccc2c(C(=O)N(C)Cc3cnn(CC)c3C)cc(-c3ccccc3Cl)nc2c1 [Compound 375]
IC50 (CREBBP (1084-1701)): 102 µM

CCn1ncc(CN(C)C(=O)c2cc(-c3ccccc3Cl)nc3ccccc23)c1C [Compound 376]
IC50 (CREBBP (1084-1701)): 32 µM

CCn1ncc(CN(C)C(=O)c2cc(-c3ccccc3F)nc3ccccc23)c1C [Compound 378]
IC50 (CREBBP (1084-1701)): 48 µM
